Key:
[1] = tested on: Sprague Dawley rats models of spinal contusion injury; conditions: chronic SCI (5 months), single intraperitoneal dose 5 mg/kg body weight
Description: (§1) Spinal contusion injury. Sprague Dawley rats are subjected to a spinal contusion injury according to the procedure described by Basso et al., Graded histological and locomotor outcomes after spinal cord contusion using the NYU weight-drop device versus transaction, Exp Neurol. […] After 20 weeks, the animals are divided into untreated injury and treated injury groups, each of which is compared to an uninjured control.
Test compound treatment. A solution of test compound, such as hydralazine hydrochloride (Sigma), is prepared with phosphate buffered saline. The solution is sterilized through a filter and stored at 4° C. […] Untreated animals are administered saline vehicle intraperitoneally. Blood pressures are monitored using a CODA 2 system (Kent Scientific Corp.).
Cold allodynia evaluation. Sprague Dawley rats models of spinal contusion injury are divided into untreated injury and treated injury groups. The untreated injury groups are injected daily with vehicle as described herein. The treated injury groups are injected daily with test compound as described herein. Uninjured controls, untreated injury groups, and treated injury groups are evaluated for pain according to the procedure described by Choi et al., Behavioral signs of ongoing pain and cold allodynia in a rat model of neuropathic pain, Pain 59:369-376 (1994).

[2] = tested on: Sprague Dawley rats models of spinal contusion injury; conditions: chronic SCI (5 months), single intraperitoneal dose 5 mg/kg body weight; remark: listed apart in the source
Description: as §1
Test compound treatment. […] The solution is sterilized through a filter and stored at 4° C. […] Untreated animals are administered saline vehicle intraperitoneally. Blood pressures are monitored using a CODA 2 system (Kent Scientific Corp.).
Mechanical allodynia evaluation. Sprague Dawley rats models of spinal contusion injury are divided into untreated injury and treated injury groups. The untreated injury groups are injected daily with vehicle as described herein. The treated injury groups are injected daily with test compound as described herein. Uninjured controls, untreated injury groups, and treated injury groups are evaluated for pain according to the procedure described by Choi et al., Behavioral signs of ongoing pain and cold allodynia in a rat model of neuropathic pain, Pain 59:369-376 (1994).

SMILES: NNc1nncc2ccccc12 [hydralazine]
- time to improvement of cold-induced pain after the injection [1]: ≤ 2 h
- duration of efficacy of the treatment, cold allodynia ([1]; FIG. 2 panel B): at least 10 days
- time to improvement of mechanical allodynia after the injection [2]: ≤ 2 days
- duration of efficacy of the treatment, mechanical allodynia ([2]; FIG. 2 panel A): at least 10 days
